Reference: patent publication US20240059700A1, “NOVEL DIACYLGLYCERIDE O-ACYLTRANSFERASE 2 INHIBITORS” (Merck Sharp & Dohme LLC, priority 2020, published 2024)

The compounds below were run against human DGAT2 (hDGAT2) (Homo sapiens (Human), UniProt Q96PD7) (assay: DGAT2 Enzymatic Activity Assay). Conditions: membrane prep of Sf-9 insect cells expressing hDGAT2; 13C18-triolein product by LC/MS/MS.
Assay type: biochemical
Experimental: Sf-9 insect cells were maintained in Grace's insect cell culture medium with 10% heated-inactivated fetal bovine serum, 1% Pluronic F-68 and 0.14 μg/ml Kanamycine sulfate at 27° C. in a shaker incubator. After infection with untagged baculovirus expressing human DGAT2 (hDGAT2) at multiplicity of infection (MOI) 3 for 48 hours, cells were harvested. Cell pellets were suspended in buffer containing 10 mM Tris-HCl pH 7.5, 1 mM EDTA, 250 mM sucrose and Complete Protease Inhibitor Cocktail (Sigma Aldrich), and sonicated on ice. Cell debris were removed by centrifugation at 2000×g for 15 minutes. Membrane fractions were isolated by ultracentrifugation (100,000×g), resuspended in the same buffer, and frozen (−80° C.) for later use. The protein concentration was determined with the Pierce™ BCA Protein Assay Kit (Thermo Fisher Scientific). Expression of protein levels was analyzed by immunoblotting with rabbit anti-DGAT2 antibody (Abcam, ab102831) and donkey anti-rabbit IgG H&L Alexa Fluor® 647 (Abcam, ab150075) followed by detection using Typhoon FLA9000 (GE Healthcare).
LC/MS/MS analyses were performed using Thermal Fisher's LX4-TSQ Vantage system. This system consists of an Agilent binary high-performance liquid chromatography (HPLC) pumps and a TSQ Vantage triple quadrupole MS/MS instrument. For each sample, 2 μL samples from the top organic layer of in-plate liquid-liquid extraction were injected onto a Thermo Betabasic C4 column (2.1 mm×20 mm, 5 μm particle size). The samples were then eluted using the following conditions; mobile phase: Isopropanol: acetonitrile/10 mM ammonium formate=50/35/15 (v/v/v), flow rate: 0.8 mL/min, temperature: 25° C. Data was acquired in positive mode using a heated electrospray ionization (HESI) interface. The operational parameters for the TSQ Vantage MS/MS instrument were a spray voltage of 3000 V, capillary temperature of 280° C., vaporizer temperature 400° C., sheath gas 45 arbitrary unit, Aux gas 10 arbitrary units, S-lens 165 and collision gas 1.0 mTorr. […] (SRM) chromatograms of ^13C18-triolein (Q1: 920.8>Q3:621.3) and internal standard ^13C21-triolein (Q1: 923.8>Q3:617.3) were collected for 33 sec. The peak area was integrated by Xcalibur Quan software. The ratio between the ^13C18 triolein generated in the reaction and spiked in internal standard ^13C21-triolein was used to generate percentage inhibition and IC50 values. Compound percentage inhibition was calculated by the following formula: Inhibition %=1−[(compound response−low control)/(high control−low control)]×100%. Potent compounds were titrated and IC50 were calculated by 4 parameter sigmoidal curve fitting formula.
DGAT2 activity was determined by measuring the amount of enzymatic product ^13C18-triolein (^13C-1,2,3-Tri(cis-9-octadecenoyl)glycerol) using the membrane prep mentioned above. The assay was carried out in ABgene 384-well assay plates in a final volume of 25 μL at rt. The assay mixture contained the following: assay buffer (100 mM Tris·Cl, pH 7.0, 20 mM MgCl2, 5% ethanol), 25 μM of diolein, 5 μM of ^13C oleoyl-CoA and 8 ng/μL of DGAT2 membrane.

Sequence of human DGAT2 (hDGAT2) (Q96PD7 whole entry): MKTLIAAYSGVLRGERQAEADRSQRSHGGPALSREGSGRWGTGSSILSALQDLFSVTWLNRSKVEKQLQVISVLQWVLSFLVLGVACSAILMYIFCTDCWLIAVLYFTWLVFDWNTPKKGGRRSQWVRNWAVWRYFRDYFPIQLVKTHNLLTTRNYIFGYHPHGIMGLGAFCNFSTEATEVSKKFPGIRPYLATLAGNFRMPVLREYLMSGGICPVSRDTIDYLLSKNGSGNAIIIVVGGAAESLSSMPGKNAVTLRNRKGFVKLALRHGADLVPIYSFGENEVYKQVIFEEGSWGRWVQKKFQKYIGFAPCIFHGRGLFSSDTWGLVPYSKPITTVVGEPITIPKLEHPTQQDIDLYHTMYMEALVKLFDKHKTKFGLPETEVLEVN

Row | Structure (SMILES) | IC50
1 | O=C(NCC1CC(F)(F)C1)c1cnc2c(-c3cccc(OC(F)F)c3)cn(-c3ncc(F)cn3)c2c1 [Example 19, N-((3,3-difluorocyclobutyl)methyl)-3-(3-(difluoromethoxy)phenyl)-1-(5-fluoropyrimidin-2-yl)-1H-pyrrolo[3,2-b]pyridine-6-carboxamide] | > 1 µM
2 | CC(C)n1nc(-c2cccc(C3CC3)c2)c2ncc(C(=O)NC3(C)CS(=O)(=O)C3)cc21 [Example 92, 3-(3-cyclopropylphenyl)-1-isopropyl-N-(3-methyl-1,1-dioxidothietan-3-yl)-1H-pyrazolo[4,3-b]pyridine-6-carboxamide] | 0.031 µM
3 | CC(C)n1nc(-c2cc(C3CC3)ccc2F)c2ncc(C(=O)NC3(C)CS(=O)(=O)C3)cc21 [Example 117, 3-(5-cyclopropyl-2-fluorophenyl)-1-isopropyl-N-(3-methyl-1,1-dioxidothietan-3-yl)-1H-pyrazolo[4,3-b]pyridine-6-carboxamide] | 0.0096 µM
4 | N[C@@H]1COC[C@H]1NC(=O)c1cnc2c(-c3cccc(OC(F)F)c3)cn(-c3ncc(F)cn3)c2c1 [Example 22, N-((3S,4S)-4-aminotetrahydrofuran-3-yl)-3-(3-(difluoromethoxy)phenyl)-1-(5-fluoropyrimidin-2-yl)-1H-pyrrolo[3,2-b]pyridine-6-carboxamide] | 0.63 µM
5 | CC(C)n1nc(-c2cccc(C3(C#N)CC3)c2)c2ncc(C(=O)NC3(C)CS(=O)(=O)C3)cc21 [Example 110, 3-(3-(1-cyanocyclopropyl)phenyl)-1-isopropyl-N-(3-methyl-1,1-dioxidothietan-3-yl)-1H-pyrazolo[4,3-b]pyridine-6-carboxamide] | 1.93 µM
6 | CC(C)n1nc(-c2cc(OC(F)F)ccc2F)c2ncc(C(=O)NC3(C)CS(=O)(=O)C3)cc21 [Example 113, 3-(5-(difluoromethoxy)-2-fluorophenyl)-1-isopropyl-N-(3-methyl-1,1-dioxidothietan-3-yl)-1H-pyrazolo[4,3-b]pyridine-6-carboxamide] | 0.001 µM
7 | CC1(NC(=O)c2cnc3c(-c4cccc(OC(F)F)c4)nn(CC4CCOCC4)c3c2)CS(=O)(=O)C1 [Example 69, 3-(3-(difluoromethoxy)phenyl)-N-(3-methyl-1,1-dioxidothietan-3-yl)-1-((tetrahydro-2H-pyran-4-yl)methyl)-1H-pyrazolo[4,3-b]pyridine-6-carboxamide] | 0.059 µM
8 | CC(C)n1nc(-c2cccc(F)c2)c2ncc(C(=O)NC3(C)CS(=O)(=O)C3)cc21 [Example 104, 3-(3-fluorophenyl)-1-isopropyl-N-(3-methyl-1,1-dioxo-thietan-3-yl)pyrazolo[4,3-b]pyridine-6-carboxamide] | 0.119 µM
9 | CC(C)n1nc(-c2cccc(C#N)c2)c2ncc(C(=O)NC3(C)CS(=O)(=O)C3)cc21 [Example 108, 3-(3-cyanophenyl)-1-isopropyl-N-(3-methyl-1,1-dioxidothietan-3-yl)-1H-pyrazolo[4,3-b]pyridine-6-carboxamide] | 0.109 µM
10 | CC(C)n1nc(-c2cccc(OC(F)F)n2)c2ncc(C(=O)NC3(C)CS(=O)(=O)C3)cc21 [Example 96, 3-[6-(difluoromethoxy)-2-pyridyl]-1-isopropyl-N-(3-methyl-1,1-dioxo-thietan-3-yl)pyrazolo[4,3-b]pyridine-6-carboxamide] | 5.54 µM
11 | CC(C)n1nc(-c2cc(OC(F)(F)F)ccc2F)c2ncc(C(=O)NC3(C)CCS(=O)(=O)CC3)cc21 [Example 118, 3-(2-fluoro-5-(trifluoromethoxy)phenyl)-1-isopropyl-N-(4-methyl-1,1-dioxidotetrahydro-2H-thiopyran-4-yl)-1H-pyrazolo[4,3-b]pyridine-6-carboxamide] | 0.02 µM
12 | CCn1nc(-c2cccc(OC(F)F)c2)c2ncc(C(=O)NC3(C)CS(=O)(=O)C3)cc21 [Example 27, 3-(3-(difluoromethoxy)phenyl)-1-ethyl-N-(3-methyl-1,1-dioxidothietan-3-yl)-1H-pyrazolo[4,3-b]pyridine-6-carboxamide] | 0.111 µM
13 | CC1(NC(=O)c2cnc3c(-c4cccc(OC(F)F)c4)nn(C4CCOCC4)c3c2)CS(=O)(=O)C1 [Example 63, 3-(3-(difluoromethoxy)phenyl)-N-(3-methyl-1,1-dioxidothietan-3-yl)-1-(tetrahydro-2H-pyran-4-yl)-1H-pyrazolo[4,3-b]pyridine-6-carboxamide] | 0.018 µM
14 | CC(C)n1nc(-c2cncc(OC(F)F)c2)c2ncc(C(=O)N[C@H]3CCCC[C@@H]3O)cc21 [Example 99, 3-[5-(difluoromethoxy)-3-pyridyl]-N-[(1S,2S)-2-hydroxycyclohexyl]-1-isopropyl-pyrazolo[4,3-b]pyridine-6-carboxamide] | 0.052 µM
15 | CC(O)C(C)NC(=O)c1cnc2c(-c3cccc(OC(F)F)c3)nn(C(C)C)c2c1 (stereo not shown) [Example 45a, 3-(3-(difluoromethoxy)phenyl)-N-(3-hydroxybutan-2-yl)-1-isopropyl-1H-pyrazolo[4,3-b]pyridme-6-carboxamide] | 0.023 µM
16 | CC(=O)Nc1ccc(-c2nn(C(C)C)c3cc(C(=O)NC4(C)CS(=O)(=O)C4)cnc23)cc1O [Example 124, 3-(4-acetamido-3-hydroxyphenyl)-1-isopropyl-N-(3-methyl-1,1-dioxidothietan-3-yl)-1H-pyrazolo[4,3-b]pyridine-6-carboxamide] | 0.62 µM
17 | CC(C)n1nc(-c2cncc(OC3CC3)c2)c2ncc(C(=O)NC3(C)CS(=O)(=O)C3)cc21 [Example 106, 3-(5-cyclopropoxypyridin-3-yl)-1-isopropyl-N-(3-methyl-1,1-dioxidothietan-3-yl)-1H-pyrazolo[4,3-b]pyridine-6-carboxamide] | 0.046 µM
18 | CN(C)[C@H]1COC[C@@H]1NC(=O)c1cnc2c(-c3cccc(OC(F)F)c3)cn(-c3ncc(F)cn3)c2c1 [Example 8, 3-(3-(difluoromethoxy)phenyl)-N-((3R,4R)-4-(dimethylamino)tetrahydrofuran-3-yl)-1-(5-fluoropyrimidin-2-yl)-1H-pyrrolo[3,2-b]pyridine-6-carboxamide] | 0.119 µM
19 | CC(C)n1nc(-c2cc(OC(F)F)ncc2F)c2nnc(C(=O)NC3(C)CCS(=O)(=O)CC3)cc21 [Example 85, 3-(2-(difluoromethoxy)-5-fluoropyridin-4-yl)-1-isopropyl-N-(4-methyl-1,1-dioxidotetrahydro-2H-thiopyran-4-yl)-1H-pyrazolo[4,3-c]pyridazine-6-carboxamide] | 0.143 µM
20 | C[C@]1(NC(=O)c2cc3c(cn2)c(-c2cccc(OC(F)F)c2)nn3-c2ccc(F)cc2)CCS(=O)(=O)C1 [Example 5, (S)-3-(3-(difluoromethoxy)phenyl)-1-(4-fluorophenyl)-N-(3-methyl-1,1-dioxidotetrahydrothiophen-3-yl)-1H-pyrazolo[4,3-c]pyridine-6-carboxamide] | 0.011 µM
21 | C[C@]1(NC(=O)c2cnc3c(-c4cccc(OC(F)F)c4)cn(C4CCOCC4)c3c2)CCS(=O)(=O)C1 [Example 81, (S)-3-(3-(difluoromethoxy)phenyl)-N-(3-methyl-1,1-dioxidotetrahydrothiophen-3-yl)-1-(tetrahydro-2H-pyran-4-yl)-1H-pyrrolo[3,2-b]pyridine-6-carboxamide] | 0.208 µM
22 | CC(C(N)=O)n1nc(-c2cc(OC(F)F)ccc2F)c2ncc(C(=O)NC3(C)CS(=O)(=O)C3)cc21 (stereo not shown) [Example 90, 1-(1-amino-1-oxopropan-2-yl)-3-(5-(difluoromethoxy)-2-fluorophenyl)-N-(3-methyl-1,1-dioxidothietan-3-yl)-1H-pyrazolo[4,3-b]pyridine-6-carboxamide] | 0.48 µM
